Measurements taken from patent publication US20230321133A1, “COMPOSITIONS AND METHODS FOR TREATING BACTERIAL INFECTIONS” (THE TRUSTEES OF DARTMOUTH COLLEGE, priority 2020, published 2023).
Values after ≈ are worked out from the molar mass of the structure shown. Read-outs that look alike come from different tables or passages of the source.

Legend:
[1] = test system: P. aeruginosa strain PA14 biofilm; test: Crystal violet biofilm plate assay, strain PA14; details: for sub-inhibitory antibiotic concentration for biofilm formation: PA14, absence of EVs; for biofilm formation, antibiotics alone: PA14, aztreonam 0.1 μg/ml or carbenicillin 5 μg/ml, no EVs
Description: Studies were also conducted to examine the time course of EV inhibition of biofilm formation using the crystal violet plate assay. […] Studies were conducted to determine if EV increase the ability of 3-lactam antibiotics to inhibit planktonic growth and biofilm formation by P. aeruginosa using the crystal violet biofilm plate assay^64. The subthreshold concentration of ATM (0.1 μg/ml) and CAR (5 μg/ml) for biofilm formation by P. aeruginosa in the absence of EV was determined.

[2] = test system: clinical isolates of P. aeruginosa; test: Crystal violet biofilm plate assay, clinical isolates; details: six clinical isolates, carbenicillin 20 μg/ml, absence of EVs
Description: It was also assessed whether EVs increase the ability of aztreonam to inhibit biofilm formation by clinical isolates of P. aeruginosa.

P. aeruginosa proteins = test: Unbiased proteomic (LC-MS/MS) analysis of P. aeruginosa exposed to EV; type: cell-based, Pseudomonas aeruginosa; details: 0.1 μg/ml aztreonam
Text: EV targets MexGHI-OpmD, a multidrug efflux pump that contributes to resistance to fluoroquinolone antibiotics including ciprofloxacin. Hyper-expression of RND multidrug efflux pumps is frequent in clinical isolates of P. aeruginosa and contributes to the development of multi-drug resistance phenotypes in the clinical setting^17. To determine if EV containing let-7b target and reduce MexGHI-OpmD, an unbiased proteomic (LC-MS/MS) approach was used, as previously described 27.
Column 1-Genes involved in biofilm formation (PhzE1 and PhzE2 have been identified as targets of let-7b in preliminary experiments). Column 2-Percent change in protein abundance induced by EV, determined by LC-MS/MS. Column 3-IntaRNA targeting score for let-7b for each biofilm gene, indicating a highly energetically favorable interaction between let-7b and the target mRNA^51.
[…]. […] According to the comprehensive antibiotic resistance database (CARD)57, eight of the 15 aztreonam-induced proteins have homology to beta-lactam resistance proteins in other bacteria. […]. […] This prediction is consistent with our observed phenotype of EV inhibition of biofilm formation. […].

[3] = test system: planktonic P. aeruginosa strain PA14; test: Planktonic growth yield assays, MIC and NIC of aztreonam; type: cell-based, Pseudomonas aeruginosa; details: for MIC: Pseudomonas aeruginosa, read-out: minimal inhibitory concentration (MIC)

## CC1(C)S[C@@H]2[C@H](NC(=O)C(C(=O)O)c3ccccc3)C(=O)N2[C@H]1C(=O)O (stereo partly shown) [carbenicillin]
[1]
  sub-inhibitory antibiotic concentration for biofilm formation: 5 µg/mL
  biofilm formation, antibiotics alone: did not significantly alter
[2]
  biofilm formation: did not significantly reduce

## C[C@H]1[C@H](NC(=O)/C(=N\OC(C)(C)C(=O)O)c2csc(N)n2)C(=O)N1S(=O)(=O)O [aztreonam]
P. aeruginosa proteins
  PA14_48790 and PA14_16020 abundance: significantly induced
P. aeruginosa proteins; 16 hours, p<0.05
  beta-lactamase AmpC abundance: significantly induced
P. aeruginosa proteins; p<0.05 and log 2 fold change>0.58, in addition to AmpC
  number of proteins significantly induced by at least 50%: 15
[3]; PA14, aztreonam 0.8 μg/ml alone compared to controls
  planktonic growth: significantly reduced
[3]; PA14, control (no EVs)
  non-inhibitory concentration (NIC): 0.6 µg/mL
[3]; PA14, with EVs
  non-inhibitory concentration (NIC): 0.1 µg/mL
[3]; PA14, PA14, control (no EVs)
  MIC: 2 µg/mL (≈ 4.59 µM)
[3]; PA14, PA14, with EVs
  MIC: 0.8 µg/mL (≈ 1.84 µM)
[1]
  sub-inhibitory antibiotic concentration for biofilm formation: 0.1 µg/mL
  biofilm formation, antibiotics alone: did not significantly alter
